Reference: US10378021B2, “Plant CO2 sensors, nucleic acids encoding them, and methods for making and using them” (The Regents of the University of California, priority 2007, dated 2019)
One block for each compound: values may come before it.

Assays:
Arabidopsis guard cells = conditions: loaded into Arabidopsis guard cells; cited from earlier work
[1] = test system: wild-type leaf epidermis stomata; experiment: CO2-induced stomatal movements in leaf epidermis treated with carbonic anhydrase inhibitor; assay type: cell-based, Arabidopsis thaliana; conditions: wild-type leaf epidermis treated for 30 min
[2] = test system: wild-type Arabidopsis thaliana plants; experiment: Norflurazon bleaching of leaves and CO2-induced stomatal movements in albino leaves; assay type: in vivo
Procedure: To further analyze whether intact photosynthesis is required for CO2 regulation of stomatal movements, another approach was carried out.
FIG. 13A illustrates an image of chlorophyll-deficient albino wild-type leaves devoid of functional chloroplasts were generated by application of the carotenoid biosynthesis inhibitor norflurazon. The absence of chlorophyll in albino guard cells compared to wild-type was visualized by confocal microscopy (FIG. 13B graphically illustrates data) and quantified by image analysis of the chlorophyll fluorescence intensity (FIG. 13C graphically illustrates data) (n=3, 12 stomata/sample.). FIG. 13D graphically illustrates data showing CO2-induced stomatal movements in albino versus control plant leaves (n=7, 50 stomata/sample). Error bars depict means±s.e.m.

[3] = test system: ca1ca4 leaf epidermis stomata; experiment: abscisic acid-induced stomatal closing in leaf epidermis; assay type: cell-based, Arabidopsis thaliana
Procedure: FIG. 10A illustrates stomata in ca1ca4 double mutant leaves close in response to abscisic acid; n=3 experiments, 30 stomata/experiment and condition. Error bars depict means±s.e.m. FIG. 10B illustrates CO2-induced stomatal movements are impaired in ca1ca4 double mutant leaves and in wild-type leaf epidermis treated with the carbonic anhydrase inhibitor 6-ethoxy-2-benzothiazolesulphonamide (EZA) (n=6, 30 stomata/sample); see e.g., Becker et al., 2007.
To determine whether the impaired CO2 responses in intact leaves (see FIG. 9C, FIG. 9D, FIG. 9E) are linked to stomatal movements, CO2 responses were analyzed in leaf epidermis. CO2-induced stomatal movements were impaired in ca1ca4 as compared to wild-type, as illustrated in FIG. 10B. Furthermore, when wild-type leaf epidermis were treated for 30 min with the membrane-permeable CA inhibitor EZA (see, e.g., Becker et al., 2007), CO2-induced stomatal opening and closing were inhibited, which correlates with a role for carbonic anhydrases in CO2 sensing, rather than a long-term developmental effect of CA gene disruption on the rapid CO2 response, as illustrated in FIG. 10B.

SMILES: O=C(O)CN(CC(=O)O)c1ccccc1OCCOc1ccccc1N(CC(=O)O)CC(=O)O [BAPTA]
- spontaneous calcium transients in guard cells (Arabidopsis guard cells): effectively inhibits

- CO2-induced stomatal opening and closing [1]: inhibited
SMILES: CCOc1ccc2nc(S(N)(=O)=O)sc2c1 [EZA, 6-ethoxy-2-benzothiazolesulphonamide]

SMILES: CNc1cnn(-c2cccc(C(F)(F)F)c2)c(=O)c1Cl [Norflurazon]
- stomatal CO2 response to both high and low [CO2] in intact leaves ([2]; albino leaves without functional chloroplasts): not affected
- leaf phenotype of newly emerging leaves ([2]; watering 3 to 4 week-old wild-type plants): albino chlorophyll-deficient wild-type leaves devoid of functional chloroplasts

SMILES: CC1=CC(=O)CC(C)(C)[C@@]1(O)/C=C/C(C)=C\C(=O)O [abscisic acid]
- ABA-induced stomatal closing [3]: completely functional
